From patent publication US20020122768A1, “Stable radiopharmaceutical compositions and methods for preparation thereof” (priority 2000, published 2002)

Experiment: Solution stability of ^90Y-B at −78° C., RCP by radio-HPLC
Assay type: physicochemical
Conditions: ^90Y-B prepared with GA; for RCP (%) t = 0 / RCP (%) t = 3 days / RCP (%) t = 7 days: degassed, second stabilizer (20 mg AA, 20 mg DSA, 10 mg 2,3,4-THBA, 10 mg HABA) added post-labeling; for RCP (%) change: second stabilizer added post-labeling, t = 0 to 7 days
Procedure: The integrity of a radiopharmaceutical is measured by the radiochemical purity (RCP) of the radiolabeled compound using ITLC or more preferably HPLC. The advantage of using HPLC is that radio-impurities caused by radiolytic degradation can be separated from the radiopharmaceutical under optimized chromatographic conditions. […] The radiopharmaceutical compositions of this invention are effective in maintaining the long-term stability of samples that have been frozen, thawed, and re-tested periodically for 7 days.
The initial RCP of a radiopharmaceutical is largely dependent on radiolabeling conditions such as pH, heating temperature and time. Once a radiopharmaceutical is prepared in high yield, the stability of the radiopharmaceutical composition is measured by the` RCP change of the radiopharmaceutical over a certain period of time. For comparison purposes, sodium gentisate or sodium ascorbate was often used as the reference since they have been used in various radiopharmaceutical formulations.
HPLC method 2 used a HP-1100 HPLC system with a UV/visible detector (λ=220 nm), an IN-US radio-detector, and a Zorbax C18 column (4.6 mm×250 mm, 80 Å pore size). The flow rate was 1 mL/min with a gradient mobile phase starting from 92% solvent A (0.025 M ammonium acetate buffer, pH 6.8) and 8% solvent B (acetonitrile) at 0 min to 90% solvent A and 10% solvent B at 18 min, followed by an isocratic wash using 40% of solvent A and 60% solvent B from 19 to 25 min.
The ITLC method used Gelman Sciences silica-gel ITLC paper strips and 1:1 mixture of acetone and saline as eluant. By this method, the radiolabeled compounds migrate to the solvent front while [^90Y]/^177Lu]colloid and [^90Y]/^177Lu]acetate remain at the origin. […]
The 0.5 M ammonium acetate buffer (pH 8.0) was first degassed under vacuum for 1-2 min. COMPOUND B and gentisic acid (sodium salt, GA) were dissolved in the degassed buffer to give a concentration of 100 μg/mL for COMPOUND B and 20 mg/mL for GA. The resulting solution was immediately degassed under vacuum for another 1-2 min. To a clean sealed 5 mL vial was added 1.0 mL of the degassed 0.5 M ammonium acetate buffer (pH 8.0) containing 100 μg COMPOUND B and 10 mg GA. The solution was degassed again under vacuum. Upon addition of ˜20 μL of ^90YCl3 solution (˜20 mCi) in 0.05 N HCl, the reaction mixture was heated at 100° C. for 5 min. After cooling to room temperature, a sample of the resulting solution was diluted 20-fold with saline containing gentisate (10 mg/mL), and was then analyzed by HPLC (Method 2, injection volume=1-2 μL) and ITLC. […] To the solution above was added 0.5 mL of sodium ascorbate solution (40 mg/mL in 0.5 M ammonium acetate buffer, pH=7.4). The resulting mixture was then kept in a dry-ice box (−78° C.) for 7 days. Samples were analyzed at t=0, 3 and 7 days.
The 0.5 M ammonium acetate buffer (pH 8.0) was first degassed under vacuum for 1-2 min. COMPOUND B and gentisic acid (sodium salt, GA) were dissolved in the degassed buffer to give a concentration of 100 μg/mL for COMPOUND B and 20 mg/mL for GA. The resulting solution was immediately degassed under vacuum for another 1-2 min. To a clean sealed 5 mL vial was added 1.0 mL of the degassed 0.5 M ammonium acetate buffer (pH 8.0) containing 100 μg COMPOUND B and 10 mg GA. The solution was degassed again under vacuum. Upon addition of ˜20 μL of ^90YCl3 solution (˜20 mCi) in 0.05 N HCl, the reaction mixture was heated at 100° C. for 5 min. After cooling to room temperature, a sample of the resulting solution was diluted 20-fold with saline containing gentisate (10 mg/mL), and was then analyzed by HPLC (Method 2, injection volume=1-2 μL) and ITLC. […] To the solution above was added 0.5 mL of 2,3,4-trihydroxybenzoic acid solution (20 mg/mL in 0.5 M ammonium acetate buffer, pH=6.5). The resulting mixture was then kept in a dry-ice box (−78° C.) for 7 days. Samples were analyzed at t=0, 3 and 7 days. […]

| RCP (%) t = 0 [%] | RCP (%) t = 3 days [%] | RCP (%) t = 7 days [%] | RCP (%) change [%] | Compound |
| --- | --- | --- | --- | --- |
| 94.4 | 94.8 | 94.5 | 0.1 | 2,4-disulfonatobenzeneamine [DSA] |
| 94.2 | 93.6 | 93.9 | 0.3 | O=C(O)c1ccc(O)c(O)c1O [2,3,4-THBA, 2,3,4-trihydroxybenzoic acid] |
